Source: patent US10258602B2 (Ocera Therapeutics, Inc., priority 2007, dated 2019)

What was measured:
[1] = system: rat stomach fundus strips; test: tissue or blood; conditions: read-out: EC50 values for contractility
Protocol: Fundus strips (approximately 0.4×1 cm) were cut from the stomach of adult male Wistar rats parallel to the circular muscle fibers. They were placed between two platinum ring electrodes, 1 cm apart (Radnoti, ADInstruments, USA) in 10 ml tissue baths containing Krebs solution bubbled with 5% CO2 in O2 and maintained at 37° C. Tissues were suspended under 1.5 g resting tension. Changes of tension were measured isometrically with force transducers and recorded with a PowerLab 8/30 data acquisition system (ADInstruments, USA). Tissues were allowed to equilibrate for 60 min during which time bath solutions were changed every 15 min.
EFS was achieved by applying 0.5 ms pulses, 5 Hz frequency, at a maximally effective voltage of 70 V. EFS was applied for 30 sec at 3 min intervals for a 30 min initial period. This initial period was separated by a 5 min interval with wash out of the bath solution. Then, a second period of stimulation was started. […] Responses to the agents were measured and expressed as % of the mean of three or four pre-drug responses to EFS. All compounds were dissolved at 1 mM in distilled water or MeOH, as stock solutions.

[2] = Plasma protein binding, rat plasma; format: in vitro ADME; conditions: test concentration 5 μg/mL
[3] = Plasma protein binding, human plasma (equilibrium dialysis); format: in vitro ADME; conditions: test concentration 5 μg/mL
Method in brief: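 Human plasma incubated with test article at several concentrations for 60 min at 37° C. Bound and unbound fractions separated by equilibrium dialysis; unbound concentration quantified by LC-MS or LC-MS-MS.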

[4] = molecular target: T1, hGHS-R1a (Homo sapiens, UniProt Q92847); test: Activation-desensitization profile, Ca2+ flux in HEK293 cells stably expressing hGHS-R1a; format: cell-based; conditions: higher positive = less desensitization potential
T1 construct: expressed in transfected cells
T1 sequence (Q92847 whole entry): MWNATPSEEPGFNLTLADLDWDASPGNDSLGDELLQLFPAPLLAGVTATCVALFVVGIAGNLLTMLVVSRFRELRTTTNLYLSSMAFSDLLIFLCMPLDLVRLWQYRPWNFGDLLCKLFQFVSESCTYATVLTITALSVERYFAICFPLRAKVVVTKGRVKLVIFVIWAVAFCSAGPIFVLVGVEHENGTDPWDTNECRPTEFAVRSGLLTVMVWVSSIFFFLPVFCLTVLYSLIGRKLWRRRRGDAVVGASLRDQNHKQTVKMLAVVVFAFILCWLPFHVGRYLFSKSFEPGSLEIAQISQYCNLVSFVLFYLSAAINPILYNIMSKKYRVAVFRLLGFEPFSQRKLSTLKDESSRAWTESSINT
Protocol: M. Activation-Desensitization Profile
It is well-known that agonists of G-protein coupled receptors can induce desensitization or tachyphylaxis, thereby limiting the potential of agents acting at the receptor as therapeutics for chronic use.
• 1. […] Agonist-induced Ca^+2 fluxes were measured after loading with Ca^+2 indicator Fluo-4-AM. • 3. […] Results

[5] = molecular target: T2, CYP1A2 (Homo sapiens, UniProt P05177); test: Cytochrome P450 inhibition, CYP1A2; format: in vitro ADME; conditions: read-out: IC50 1A2
T2 construct: purchased BD Gentest, Becton-Dickinson (Supersomes); host or cells: insect cells
T2 sequence (P05177 1-516): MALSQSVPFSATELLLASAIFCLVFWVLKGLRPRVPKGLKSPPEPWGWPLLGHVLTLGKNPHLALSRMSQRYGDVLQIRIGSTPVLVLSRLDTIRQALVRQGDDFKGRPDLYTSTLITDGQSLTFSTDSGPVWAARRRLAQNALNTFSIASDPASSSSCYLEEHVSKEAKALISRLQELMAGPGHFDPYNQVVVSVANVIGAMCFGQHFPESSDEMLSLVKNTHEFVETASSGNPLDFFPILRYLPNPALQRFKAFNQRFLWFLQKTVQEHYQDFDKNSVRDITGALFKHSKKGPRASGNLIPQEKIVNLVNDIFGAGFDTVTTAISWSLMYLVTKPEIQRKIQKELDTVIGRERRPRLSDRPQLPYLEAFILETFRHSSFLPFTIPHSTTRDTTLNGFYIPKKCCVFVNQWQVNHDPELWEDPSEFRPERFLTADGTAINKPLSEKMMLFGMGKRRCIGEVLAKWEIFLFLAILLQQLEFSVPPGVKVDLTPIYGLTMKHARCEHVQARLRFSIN
From the text: K. Assay for Cytochrome P450 Inhibition
Cytochrome P450 enzymes are implicated in the phase I metabolism of drugs. The majority of drug-drug interactions are metabolism-based and, moreover, these interactions typically involve inhibition of cytochrome P450s. Six CYP450 enzymes (CYP1A2, CYP2C8, CYP2C9, CYP2C19, CYP2D6 and CYP3A4) appear to be commonly responsible for the metabolism of most drugs and the associated drug-drug interactions. Assays to determine the binding of compounds of the invention to the various metabolically important isoforms of cytochrome P450 metabolizing enzymes are commercially available, for example NoAb BioDiscoveries (Mississaugua, ON, Canada) and Absorption Systems (Exton, Pa., USA). As well, a number of appropriate methods have been described or reviewed in the literature. (White, R. E. Ann. Rev. Pharmacol. Toxicol. 2000, 40, 133-157; Li, A. P. Drug. Disc. Today 2001, 6, 357-366; Turpeinen, M.; Korhonen, L. E. Tolonen, A.; et al. Eur. J. Pharm. Sci, 2006, 29, 130-138.)
The key aspects of the experimental method were as follows: • 1. […] Assays monitored, via fluorescence detection, the formation of a fluorescent metabolite following incubation of the microsomes with a specific CYP substrate. • 3. Compounds of the present invention were tested in duplicate samples at eight test concentrations using 3-fold serial dilutions (concentration range of 0.0457 to 100 μM). • 4. For each CYP-450 enzyme, a specific inhibitor was tested in duplicate at eight concentrations as a positive control. • 5. The concentration of the inhibitor or test compound that inhibited metabolite formation by 50% (IC50) was calculated by non-linear regression analysis of the % inhibition vs. log concentration (M) curve.

[6] = molecular target: GHS-R1a receptor (human ghrelin receptor) (Homo sapiens, UniProt Q92847); test: Aequorin functional assay (ghrelin receptor), standard method B; format: cell-based
Chain of GHS-R1a receptor (human ghrelin receptor) (Q92847 whole entry): as the sequence (Q92847 whole entry) above
From the text: B. Aequorin Functional Assay (Ghrelin Receptor)
See also U.S. patent application Ser. Nos. 11/149,512 and 11/149,731. (LePoul, E.; et al. J. Biomol. Screen. 2002, 7, 57-65; Bednarek, M. A.; et al. J. Med. Chem. 2000, 43, 4370-4376; Palucki, B. L.; et al. Bioorg. Med. Chem. Lett. 2001, 11, 1955-1957.) Functional activity at the gherlin receptor for representative compounds of the present invention is presented in the Examples.

[7] = system: Caco-2 cell layer; test: Caco-2 permeability; conditions: for Papp A to B: Caco-2, apical to basolateral; for Papp A to B / Papp B to A: 10 μM, 60 min, 37° C.; for Papp B to A: Caco-2, basolateral to apical; for BtoA/AtoB: Caco-2 ratio of Papp B to A over A to B
Protocol: L. Determination of Caco-2 Permeability
Fully differentiated cell monolayers can be used to assess the membrane transport properties of novel compounds.
Permeability across the Caco-2 cell layer was determined by growing the cells on a membrane placed between two (donor and acceptor) chambers. […] Permeability in this direction represents intestinal absorption. Permeability may also be determined from the basolateral to the apical side of the Caco-2 cell. A higher apical to basolateral Papp, compared to the basolateral to apical Papp, is indicative of carrier-mediated transport.
Permeability (10 μM) for compounds of the invention in the apical to basolateral and basolateral to apical direction were tested in duplicate. Samples will be collected from the donor and acceptor chambers at the beginning (0 min) and following 60 min of incubation at 37° C. and stored frozen at −70° C. until bioanalysis. Samples for each test compound generated from the Caco-2 permeability assay were further analyzed by LC-MS-MS. The permeability of [^3H]-mannitol and [^3H]-propranolol were determined in parallel as controls.
The permeability coefficient (Papp) of each compound and radiolabeled standard was determined using the following equation:
where dQ/dT represents the permeability rate, Ci denotes the initial concentration in the donor compartment, and A represents the surface area of the filter. Ci is determined from the mean concentration of duplicate samples taken prior to addition to the donor compartment. Permeability rates were calculated by plotting the cumulative amount of compound measured in the acceptor compartment over time and determining the slope of the line by linear regression analysis. The duplicate and mean apical to basolateral and basolateral to apical Papp's were reported for each compound and standard.

IC50 [5] | SMILES | Papp A to B [7] | Papp B to A [7] | BtoA/AtoB [7] | further results
> 100 µM | CC(C)C[C@H]1NC(=O)[C@@H](C)N(C)C(=O)[C@H](C2CC2)NCCOc2cc(F)ccc2CC[C@H](C)NC1=O [Compound 822] | – | – | – | –
> 100 µM | CC(C)CC1NC(=O)C(C)N(C)C(=O)C(C2CCCCC2)NCC(C)OC2CCCCC2CCCNC1=O (mixture of isomers) [Compound 828] | – | – | – | –
> 100 µM | CC(C)CC1NC(=O)C(C)N(C)C(=O)C(C2CC2)NCC(C)OC2CCCCC2CCCNC1=O (mixture of isomers) [Compound 825] | 113 cm/sec × 10^−6 | 123 cm/sec × 10^−6 | 1.08 | –

More lines, now with the values behind:

SMILES | IC50 [5] | Papp A to B [7] | Papp B to A [7] | BtoA/AtoB [7] | further results
CC(C)C[C@H]1NC(=O)[C@@H](C)N(C)C(=O)[C@H](C2CC2)NC[C@@H](C)Oc2ccccc2CC[C@H](C)NC1=O [Compound 807] | > 100 µM | – | – | – | EC50 [1]: 0.15 µM; fraction unbound at 60 min, 5 μg/mL [2]: 0.16; fraction unbound at 60 min, 5 μg/mL [3]: 0.007; Δ(activity-desensitization) (pEC50 − pDC50) [4]: 3.08; EC50 [6]: ≤ 0.05 µM
C[C@@H]1C(=O)N[C@H](Cc2ccc(O)cc2)C(=O)NCCCc2ccc(F)cc2OCCN[C@@H](C2CC2)C(=O)N1C [Compound 809] | > 100 µM | – | – | – | –
CC1CNC(C2CC2)C(=O)N(C)C(C)C(=O)NC(Cc2ccc(O)cc2)C(=O)NCCCC2CCCCC2O1 (mixture of isomers) [Compound 826] | > 100 µM | 11.2 cm/sec × 10^−6 | 46.9 cm/sec × 10^−6 | 4.18 | Δ(activity-desensitization) (pEC50 − pDC50) [4]: 1.90
CC(C)C[C@H]1NC(=O)[C@@H](C)N(C)C(=O)[C@H](C2CC2)NCCOc2cc(F)ccc2CCCNC1=O [Compound 810] | 69 µM | – | – | – | –
C[C@@H]1C(=O)N[C@H](Cc2ccc(O)cc2)C(=O)NCCCc2cccc3c2O[C@H](CC3)CN[C@@H](C2CC2)C(=O)N1C [Compound 803] | > 100 µM | 12.1 cm/sec × 10^−6 | 67.3 cm/sec × 10^−6 | 5.59 | –
CC1NC(C2CC2)C(=O)N(C)C(C)C(=O)NC(Cc2ccc(O)cc2)C(=O)NCCCc2ccccc2OC1C (stereo not drawn) [Compound 820] | > 100 µM | – | – | – | –
